Test results taken from patent US20230293599A1, “BACTERIAL COMPOSITIONS WITH ANTI-INFLAMMATORY ACTIVITY” (Universiteit Gent, priority 2020, published 2023).
Read-outs that look alike come from different tables or passages of the source. Residues, ends and D or L forms follow the SMILES beside them.

Tests used:
R. gilardii = assay: Biolog Phenotype Microarray PM1-2 growth on carbon sources; type: cell-based, Roseomonas gilardii
Experimental: (§1) Using Phenotype Microarray (PM) panels (Biolog), the influence of 190 carbon sources on the growth of the potential probiotic species R. mucilaginosa, R. dentocariosa, R. gilardii, G. haemolysans, and common respiratory pathogens P. aeruginosa, and S. aureus was determined. PM1 and PM2 panels (Biolog) were inoculated according to the manufacturer's instructions. Growth curves were generated for 35 hours by measuring the absorbance at 590 nm using an EnVision (Perkin Elmer) plate reader.

P. aeruginosa = assay: as above; type: cell-based, Pseudomonas aeruginosa
Experimental: as §1

S. aureus = type: cell-based, Staphylococcus aureus
Experimental: as §1

R. mucilaginosa = assay: Biolog Phenotype Microarray PM1-2 growth on carbon sources; type: cell-based, Rothia mucilaginosa; details: for growth of R. mucilaginosa on the carbon source (in words): AUC lower than 50 = not supporting growth
Experimental: as §1

R. dentocariosa = assay: as above; type: cell-based, Rothia dentocariosa
Experimental: as §1

G. haemolysans = assay: as above; type: cell-based, Gemella haemolysans; details: for AUC of growth curve, G. haemolysans: 35 hours, absorbance 590 nm, n = 1, cells without values AUC < 50
Experimental: as §1

[1] = 35 hours, absorbance 590 nm, n = 1, cells without values AUC < 50
[2] = AUC lower than 50 = not supporting growth

| Compound | AUC of growth curve, R. gilardii (R. gilardii; [1]) | AUC of growth curve, P. aeruginosa (P. aeruginosa; [1]) | AUC of growth curve, S. aureus (S. aureus) | AUC of growth curve, R. mucilaginosa (R. mucilaginosa; [1]) | AUC of growth curve, R. dentocariosa (R. dentocariosa; [1]) | further results |
| --- | --- | --- | --- | --- | --- | --- |
| O=C[C@H](O)[C@@H](O)[C@@H](O)[C@H](O)CO [D-Galactose] | 186.6 | 720.0 | 834.0 | 101.1 | 533.6 | – |
| O=C(O)CC(Br)C(=O)O (stereo not shown) [Bromo Succinic Acid] | 67.3 | 102.6 | 430.7 | – | 808.4 | – |
| O=C(CO)[C@@H](O)[C@@H](O)[C@H](O)CO [D-Tagatose] | – | – | 633.2 | – | – | AUC of growth curve, R. gilardii (R. gilardii): 75.2; AUC of growth curve, P. aeruginosa (P. aeruginosa): 574.0; AUC of growth curve, R. dentocariosa (R. dentocariosa): 117.7 |
| O=C(O)CC(O)(CC(=O)O)C(=O)O [Citric Acid] | 156.2 | 846.5 | 169.0 | – | – | – |
| O=C(O)CC(O)C(=O)O (racemic) [D,L-Malic Acid] | 169.8 | 852.7 | 696.0 | – | – | – |
| CC(=O)N[C@H]1[C@@H](O)[C@H](O)[C@@H](CO)O[C@H]1O [N-Acetyl-β-D-Mannosamine] | – | – | 738.3 | – | – | growth of P. aeruginosa on the carbon source (in words) (P. aeruginosa; [2]): did not support growth; AUC of growth curve, G. haemolysans (G. haemolysans): 375.8; growth of G. haemolysans on the carbon source (in words) (G. haemolysans; [2]): supported growth |
| CC(O)C(C)O (stereo not shown) [2,3-Butanediol] | – | – | 147.2 | – | – | AUC of growth curve, G. haemolysans (G. haemolysans): 145.4 |
| OC[C@H]1O[C@H](OC[C@H]2OC(O)(CO)[C@@H](O)[C@@H]2O)[C@H](O)[C@@H](O)[C@@H]1O (stereo partly shown) [Palatinose] | – | 514.7 | 763.7 | 129.4 | 197.4 | – |
| CC(=O)CC(=O)O [Acetoacetic Acid] | 172.4 | 301.3 | 928.3 | 301.4 | 229.8 | – |
| Tween 40 | – | – | 154.9 | – | – | AUC of growth curve, G. haemolysans (G. haemolysans): 101.2 |
| OC[C@H]1O[C@H](O[C@H]2[C@H](O)[C@@H](O)[C@H](O)O[C@@H]2CO)[C@H](O)[C@@H](O)[C@@H]1O [Maltose] | – | – | 867.8 | 1052.6 | 977.1 | growth of P. aeruginosa on the carbon source (in words) (P. aeruginosa; [2]): did not support growth; growth of R. mucilaginosa on the carbon source (in words) (R. mucilaginosa): allowed growth; growth of R. dentocariosa on the carbon source (in words) (R. dentocariosa; [2]): allowed growth |
| O=C1O[C@H]([C@@H](O)CO)[C@@H](O)[C@@H]1O [L-Galactonic Acid γ-Lactone] | – | – | 176.4 | – | – | AUC of growth curve, R. gilardii (R. gilardii): 212.2; AUC of growth curve, P. aeruginosa (P. aeruginosa): 549.8 |
| O=C(O)C(=O)C(C(=O)O)C(O)C(=O)O (stereo not shown) [Oxalomalic Acid] | – | – | 691.0 | – | – | AUC of growth curve, R. gilardii (R. gilardii): 219.2; growth of R. gilardii on the carbon source (in words) (R. gilardii): enabled growth; growth of P. aeruginosa on the carbon source (in words) (P. aeruginosa): did not support growth; AUC of growth curve, R. dentocariosa (R. dentocariosa): 169.4; growth of R. dentocariosa on the carbon source (in words) (R. dentocariosa): enabled growth |
| C[C@@H](O)[C@H](O)[C@H](O)[C@@H](O)C=O [D-Fucose] | 71.4 | 91.3 | 138.3 | – | 119.9 | – |
| O=C(CO)[C@@H](O[C@H]1O[C@H](CO)[C@@H](O)[C@H](O)[C@H]1O)[C@H](O)[C@H](O)CO [Turanose] | – | – | 1146.9 | 91.9 | 296.1 | growth of P. aeruginosa on the carbon source (in words) (P. aeruginosa; [2]): did not support growth; growth of R. dentocariosa on the carbon source (in words) (R. dentocariosa; [2]): stimulated only the growth |
| O=C(O)[C@@H](O)[C@H](O)[C@H](O)[C@@H](O)C(=O)O [Mucic Acid] | – | – | 162.5 | 53.4 | – | – |
| NCC(=O)N[C@@H](CCC(=O)O)C(=O)O [Glycyl-L-Glutamic Acid] (H-Gly-Glu-OH) | – | – | 871.5 | – | – | AUC of growth curve, R. gilardii (R. gilardii): 61.5; AUC of growth curve, P. aeruginosa (P. aeruginosa): 285.6; AUC of growth curve, R. mucilaginosa (R. mucilaginosa): 140.3 |
| CCC(C)N (stereo not shown) [Sec-Butylamine] | – | – | – | 67.6 | – | – |

| Compound | AUC of growth curve, R. gilardii (R. gilardii; [1]) | AUC of growth curve, P. aeruginosa (P. aeruginosa; [1]) | AUC of growth curve, S. aureus (S. aureus) | AUC of growth curve, R. mucilaginosa (R. mucilaginosa; [1]) | AUC of growth curve, R. dentocariosa (R. dentocariosa; [1]) | further results |
| --- | --- | --- | --- | --- | --- | --- |
| N[C@@H](Cc1ccccc1)C(=O)O [L-Phenylalanine] | – | – | 167.3 | – | – | AUC of growth curve, G. haemolysans (G. haemolysans): 64.4 |
| O=C(O)[C@@H]1CCCN1 [L-Proline] | – | 425.7 | 567.9 | 268.5 | 1049.5 | – |
| O=C(CO)[C@H](O)[C@H](O)[C@H](O)CO [D-Psicose] | – | – | 698.5 | – | – | AUC of growth curve, R. gilardii (R. gilardii): 86.7; AUC of growth curve, P. aeruginosa (P. aeruginosa): 771.3; AUC of growth curve, R. mucilaginosa (R. mucilaginosa): 436.4; AUC of growth curve, R. dentocariosa (R. dentocariosa): 428.2 |
| OCc1ccccc1O[C@@H]1O[C@H](CO)[C@@H](O)[C@H](O)[C@H]1O [Salicin] | – | – | 146.2 | 74.0 | 222.9 | growth of P. aeruginosa on the carbon source (in words) (P. aeruginosa; [2]): did not support growth; growth of R. dentocariosa on the carbon source (in words) (R. dentocariosa; [2]): stimulated only the growth |
| COC1OC(CO)C(O)C(O)C1O [α-Methyl-D-Galactoside] | 73.3 | – | 229.9 | – | – | – |
| O=CC(=O)O [Glyoxylic Acid] | 85.2 | – | – | 142.0 | 53.5 | – |
| OC[C@H]1O[C@@](CO)(O[C@H]2O[C@H](CO)[C@@H](O)[C@H](O)[C@H]2O)[C@@H](O)[C@@H]1O [Sucrose] | – | – | – | – | – | growth of P. aeruginosa on the carbon source (in words) (P. aeruginosa; [2]): did not support growth; growth of R. mucilaginosa on the carbon source (in words) (R. mucilaginosa): allowed growth; growth of R. dentocariosa on the carbon source (in words) (R. dentocariosa; [2]): allowed growth |
| CO[C@@H]1O[C@H](CO)[C@@H](O)[C@H](O)[C@H]1O [β-Methyl-D-Glucoside] | 56.3 | – | 779.9 | 599.6 | 405.7 | growth of P. aeruginosa on the carbon source (in words) (P. aeruginosa; [2]): did not support growth; growth of R. mucilaginosa on the carbon source (in words) (R. mucilaginosa): allowed growth; growth of R. dentocariosa on the carbon source (in words) (R. dentocariosa; [2]): allowed growth |
| OC[C@H]1O[C@H](OCC2O[C@@H](O)[C@H](O)[C@@H](O)[C@@H]2O)[C@H](O)[C@@H](O)[C@H]1O (stereo partly drawn) [D-Melibiose] | 86.9 | – | 220.2 | – | 249.8 | – |
| O=C(O)[C@]1(O)C[C@@H](O)[C@@H](O)[C@H](O)C1 [Quinic Acid] | 92.0 | 1197.1 | 255.3 | 68.3 | – | – |
| O=C(O)CCC(=O)O [Succinic Acid] | 125.7 | 348.4 | 626.1 | – | 241.8 | – |
| Maltotriose | 54.2 | – | 943.9 | 1074.7 | 1276.1 | growth of P. aeruginosa on the carbon source (in words) (P. aeruginosa; [2]): did not support growth; growth of R. mucilaginosa on the carbon source (in words) (R. mucilaginosa): allowed growth; growth of R. dentocariosa on the carbon source (in words) (R. dentocariosa; [2]): allowed growth |
| OCC(O)CO [Glycerol] | 59.0 | 78.3 | 802.4 | 786.8 | 998.9 | growth of P. aeruginosa on the carbon source (in words) (P. aeruginosa; [2]): did not support growth; growth of R. mucilaginosa on the carbon source (in words) (R. mucilaginosa): allowed growth; growth of R. dentocariosa on the carbon source (in words) (R. dentocariosa; [2]): allowed growth |
| O=P(O)(O)OCC(O)CO (racemic) [D,L-α-Glycerol-Phosphate] | – | 114.5 | – | 247.7 | 271.8 | growth of P. aeruginosa on the carbon source (in words) (P. aeruginosa; [2]): not or only minimally supporting growth; growth of S. aureus on the carbon source (in words) (S. aureus): not or only minimally supporting growth; growth of R. mucilaginosa on the carbon source (in words) (R. mucilaginosa): enable growth; growth of R. dentocariosa on the carbon source (in words) (R. dentocariosa; [2]): enable growth |
| C[C@H](O)C(=O)O [L-Lactic Acid] | 70.3 | 349.6 | 773.2 | 292.5 | 632.8 | – |
| CCC(=O)O [Propionic Acid] | 58.6 | 152.1 | 235.6 | – | – | – |
| O=C[C@H](O)[C@@H](O)[C@@H](O)[C@H](O)C(=O)O [D-Galacturonic Acid] | – | 598.2 | 165.1 | – | 57.0 | – |
| OC[C@H]1O[C@H](O[C@H]2O[C@H](CO)[C@@H](O)[C@H](O)[C@H]2O)[C@H](O)[C@@H](O)[C@@H]1O [D-Trehalose] | – | – | 852.9 | 572.3 | 937.7 | growth of P. aeruginosa on the carbon source (in words) (P. aeruginosa; [2]): did not support growth; growth of R. mucilaginosa on the carbon source (in words) (R. mucilaginosa): allowed growth; growth of R. dentocariosa on the carbon source (in words) (R. dentocariosa; [2]): allowed growth |
